Results on 13 molecules are retold here after US20060223996A1, “IL-12 modulatory compounds” (Synta Pharmaceuticals Corp., priority 2004, published 2006).

For this assay, the system named is IL-12. The assay can be described thus: Human in vitro assay: inhibition of IL-12 production in IFNγ/LPS- or IFNγ/SAC-stimulated human PBMC or THP-1 cells (ELISA). It counts as cell-based. The note with it: read-out: IC50 Range (representative in vitro IC50 data). The essentials: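 Sandwich ELISA for IL-12 (p70, p40) on supernatants collected 18 h after stimulation gave IC50 values; MTS monitored viability. THP-1 cells: IFNγ 100 U/mL priming 22 h, SAC 0.025%. PBMC: IFNγ 30 U/mL for 22 h plus LPS 1 μg/mL, or IFNγ 100 U/mL plus SAC 0.01%. Final DMSO 0.25%.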
On the technique in general: In an ELISA, binding on a coated surface is turned into a signal by an enzyme label.

What is called IC50 is the midpoint of a concentration-inhibition curve. On to `CCc1c(C)[nH]c2ccc(NC(=O)Nc3cc(N4CCN(C(C)=O)CC4)nc(N4CCOCC4)n3)cc12` [Compound 266, 1-(6-(4-acetylpiperazin-1-yl)-2-morpholinopyrimidin-4-yl)-3-(3-ethyl-2-methyl-1H-indol-5-yl)urea], for which the IC50 is below 1000 nM.

As for `CN(C)c1cccc(NC(=O)c2cc(OCCN3CCOCC3)cc(N3CCOCC3)n2)c1` [Compound 155, 6-Morpholin-4-yl-4-(2-morpholin-4-yl-ethoxy)-pyridine-2-carboxylic acid (3-dimethylamino-phenyl)-amide], the IC50 is below 1000 nM. For `CC(=O)N[C@H]1CCN(c2cc(C(=O)Nc3ccc4[nH]cc(C)c4c3)nc(N3CCOCC3)n2)C1` [Compound 260, (S)-6-(3-acetamidopyrrolidin-1-yl)-N-(3-methyl-1H-indol-5-yl)-2-morpholinopyrimidine-4-carboxamide] the value was below 1000 nM; for `O=C(Nc1cc(OCCc2ccccn2)nc(N2CCOCC2)n1)c1ccc2[nH]ccc2c1` [Compound 73, 1H-Indole-5-carboxylic acid [2-morpholin-4-yl-6-(2-pyridin-2-yl-ethoxy)-pyrimidin-4-yl]-amide], at least 1000 nM. With `Nc1cccc(NC(=O)Nc2cc(OCCN3CCOCC3)nc(N3CCOCC3)n2)c1` [Compound 324, 1-(3-Amino-phenyl)-3-[2-morpholin-4-yl-6-(2-morpholin-4-yl-ethoxy)-pyrimidin-4-yl]-urea] the figure was below 1000 nM; with `Cc1[nH]c2ccc(NC(=O)c3cc(N4CCCCC4)cc(N4CCOCC4)n3)cc2c1C` [Compound 182, 6′-Morpholin-4-yl-3,4,5,6-tetrahydro-2H-[1,4′]bipyridinyl-2′-carboxylic acid (2,3-dimethyl-1H-indol-5-yl)-amide], below 1000 nM. In the case of `O=C(Nc1cc(N2CCOCC2)nc(OCCc2ccccn2)n1)c1ccc2[nH]ccc2c1` [Compound 74, 1H-Indole-5-carboxylic acid [6-morpholin-4-yl-2-(2-pyridin-2-yl-ethoxy)-pyrimidin-4-yl]-amide], the IC50 is at least 1000 nM.

On to `O=C(Nc1ccc2[nH]c3c(c2c1)CCCC3)c1cc(OCCN2CCOC2=O)nc(N2CCOCC2)n1` [Compound 223, 2-Morpholin-4-yl-6-[2-(2-oxo-oxazolidin-3-yl)-ethoxy]-pyrimidine-4-carboxylic acid (6,7,8,9-tetrahydro-5H-carbazol-3-yl)-amide], for which the IC50 is below 1000 nM. As to `CON(C)c1cc(C(=O)Nc2ccc3[nH]c(C)c(C)c3c2)nc(N2CCOCC2)n1` [Compound 193, N-(2,3-dimethyl-1H-indol-5-yl)-6-(methoxy(methyl)amino)-2-morpholinopyrimidine-4-carboxamide], the IC50 is below 1000 nM. `Cc1cc(NC(=O)Nc2ccc3[nH]c(C)c(C)c3c2)nc(N2CCOCC2)n1` [Compound 263, 1-(2,3-dimethyl-1H-indol-5-yl)-3-(6-methyl-2-morpholinopyrimidin-4-yl)urea]: the IC50 is below 1000 nM. Consider `COCCN(C)c1cc(C(=O)Nc2cccc(-c3nc(C)no3)c2)nc(N2CCOCC2)n1` [Compound 207, 6-((2-methoxyethyl)(methyl)amino)-N-(3-(3-methyl-1,2,4-oxadiazol-5-yl)phenyl)-2-morpholinopyrimidine-4-carboxamide], for which the IC50 was at least 1000 nM. As for `Cc1[nH]c2ccc(NC(=O)c3cc(N4CCC(O)CC4)nc(N4CCOCC4)n3)cc2c1C` [Compound 173, 6-(4-Hydroxy-piperidin-1-yl)-2-morpholin-4-yl-pyrimidine-4-carboxylic acid (2,3-dimethyl-1H-indol-5-yl)-amide], the IC50 is below 1000 nM. Turning to `COCCN(C)c1cc(C(=O)Nc2cccc(OC(F)(F)F)c2)nc(N2CCOCC2)n1` [Compound 244, 6-[(2-Methoxy-ethyl)-methyl-amino]-2-morpholin-4-yl-pyrimidine-4-carboxylic acid (3-trifluoromethoxy-phenyl)-amide], the half-inhibitory concentration (IC50) was at least 1000 nM.
